According to the NIST ThermoML archive (doi:10.1016/j.jct.2017.11.007):

Assay: mn = molality of the nth substance listed, in mol/kg
Settings: 74.66 kPa, Liquid; for mass density: Vibrating tube method; for speed of sound: Frequency=3 MHz, Single path-length method

Cc1ccnc([N-]S(=O)(=O)c2ccc(N)cc2)n1.[Na+] + O
Settings | mass density, 293.15 K [kg/m3] | mass density, 298.15 K [kg/m3] | mass density, 303.15 K [kg/m3] | mass density, 308.15 K [kg/m3] | speed of sound, 298.15 K [m/s] | speed of sound, 303.15 K [m/s] | speed of sound, 308.15 K [m/s]
m1 = 0.005 | 998.778 | 997.615 | 996.212 | 994.593 | 1497.8 | 1510 | 1520.6
m1 = 0.008 | 999.118 | 997.95 | 996.544 | 994.922 | 1498.2 | 1510.5 | 1521.1
m1 = 0.01 | 999.342 | 998.172 | 996.764 | 995.14 | 1498.5 | 1510.8 | 1521.4
m1 = 0.01486 | 999.886 | 998.708 | 997.296 | 995.663 | 1499.3 | 1511.6 | 1522.1
m1 = 0.02002 | 1000.47 | 999.286 | 997.863 | 996.227 | 1500 | 1512.3 | 1522.8
m1 = 0.025 | 1001.03 | 999.841 | 998.416 | 996.774 | 1500.9 | 1513.1 | 1523.5
m1 = 0.03001 | 1001.59 | 1000.39 | 998.961 | 997.316 | 1501.7 | 1513.8 | 1524.2
m1 = 0.035 | 1002.15 | 1000.95 | 999.509 | 997.858 | 1502.5 | 1514.6 | 1524.9
m1 = 0.04002 | 1002.71 | 1001.5 | 1000.06 | 998.402 | 1503.3 | 1515.3 | 1525.7
m1 = 0.04499 | 1003.27 | 1002.05 | 1000.61 | 998.941 | 1504.1 | 1516.1 | 1526.3
m1 = 0.05 | 1003.84 | 1002.61 | 1001.16 | 999.494 | 1504.8 | 1516.8 | 1527.1
m1 = 0.05501 | 1004.4 | 1003.17 | 1001.71 | 1000.03 | 1505.7 | 1517.6 | 1527.8
m1 = 0.05998 | 1004.96 | 1003.73 | 1002.26 | 1000.58 | 1506.5 | 1518.3 | 1528.4
